From patent US4532255A, “Amidine compounds and anticomplement agent comprising same” (Torii & Co., Ltd., priority 1980, dated 1985)
pIC50: −log10 of the molar value.

Assays:
C1r = molecular target: T1, C1r (Homo sapiens, UniProt P00736); assay: Anti-C1 esterase (C1r) activity (hydrolysis of AAME); format: biochemical; conditions: AAME hydrolysis; read-out: Anti-C1 activity, C1r ID50
T1 sequence (P00736 464-705 limits assumed): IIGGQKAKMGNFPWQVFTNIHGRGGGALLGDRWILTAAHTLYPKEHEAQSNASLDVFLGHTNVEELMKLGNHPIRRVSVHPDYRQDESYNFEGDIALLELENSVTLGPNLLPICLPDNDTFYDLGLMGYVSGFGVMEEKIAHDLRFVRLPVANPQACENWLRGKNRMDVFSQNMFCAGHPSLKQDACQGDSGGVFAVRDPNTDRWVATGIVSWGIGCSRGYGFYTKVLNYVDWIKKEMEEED
T1 sequence (P00736 18-463 partner limits assumed): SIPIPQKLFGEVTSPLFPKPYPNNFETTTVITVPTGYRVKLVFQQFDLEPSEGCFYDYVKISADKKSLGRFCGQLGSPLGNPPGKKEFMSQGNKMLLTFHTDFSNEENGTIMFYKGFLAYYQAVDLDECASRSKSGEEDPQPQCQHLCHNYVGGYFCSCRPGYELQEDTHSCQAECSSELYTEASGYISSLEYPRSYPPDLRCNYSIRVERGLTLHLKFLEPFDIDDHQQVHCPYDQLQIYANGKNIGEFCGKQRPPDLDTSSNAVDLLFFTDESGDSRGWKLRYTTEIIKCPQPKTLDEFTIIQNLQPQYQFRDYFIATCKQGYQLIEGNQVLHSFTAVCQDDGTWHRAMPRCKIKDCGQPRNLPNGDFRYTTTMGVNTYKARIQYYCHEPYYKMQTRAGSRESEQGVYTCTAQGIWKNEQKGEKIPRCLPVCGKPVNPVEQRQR
Experimental: The anti-Cl esterase ([…]) activity was determined according to the method of Okamura et al. [K. Okamura, M. Muramatsu and S. Fujii, Biochem. Biophys.

Kallikrein = assay: Anti-kallikrein activity (hydrolysis of TAME); format: biochemical; conditions: molar concentration inhibiting 50% of TAME hydrolysis; read-out: Kallikrein ID50
Experimental: (§1) The anti-trypsin, anti-plasmin, anti-kallikrein and anti-thrombin activities were determined according to the method of Muramatsu et al. [M. Muramatsu, T. Onishi, S. Makino, Y. Hayashi and S. Fujii, J. of Biochem., 58, 214 (1965)]. The data summarized in Table 1 are expressed in terms of molar concentration (ID50) of the test compound which inhibits 50% of the activity of each enzyme to hydrolyze TAME (tosylalginine methyl ester). The compound No. corresponds to the compound number shown in Examples.

[1] = test system: complement mediated hemolysis; assay: Inhibition of complement mediated hemolysis; format: cell-based
Trypsin = molecular target: T2, Trypsin (Bos taurus, UniProt P00760); assay: Anti-trypsin activity (hydrolysis of TAME); format: biochemical; conditions: for pIC50: molar concentration inhibiting 50% of TAME hydrolysis, read-out: Trypsin ID50; for inhibition at 10 µM: at 1×10^-5 M, read-out: Trypsin percentage inhibition
T2 sequence (P00760 24-246): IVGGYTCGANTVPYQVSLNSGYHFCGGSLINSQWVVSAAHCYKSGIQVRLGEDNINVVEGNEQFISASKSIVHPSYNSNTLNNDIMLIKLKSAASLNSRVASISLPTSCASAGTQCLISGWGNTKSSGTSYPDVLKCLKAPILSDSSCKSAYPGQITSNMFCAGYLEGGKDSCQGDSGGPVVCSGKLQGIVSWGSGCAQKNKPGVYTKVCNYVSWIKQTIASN
Experimental: (§2) The anti-trypsin, anti-plasmin, anti-kallikrein and anti-thrombin activities were determined according to the method of Muramatsu et al. [M. Muramatsu, T. Onishi, S. Makino, Y. Hayashi and S. Fujii, J. of Biochem., 58, 214 (1965)]. […] The compound No. corresponds to the compound number shown in Examples.

Thrombin = Thrombin (Homo sapiens, UniProt P00734); assay: biochemical; conditions: for pIC50: molar concentration inhibiting 50% of TAME hydrolysis, read-out: Thrombin ID50; for inhibition at 10 µM: at 1×10^-5 M, read-out: Thrombin percentage inhibition
Experimental: as §1

C1s = molecular target: T3, C1s (Homo sapiens, UniProt P09871); assay: biochemical; conditions: ATEE hydrolysis; read-out: Anti-C1 activity, C1s ID50
T3 sequence (P09871 438-688 limits assumed): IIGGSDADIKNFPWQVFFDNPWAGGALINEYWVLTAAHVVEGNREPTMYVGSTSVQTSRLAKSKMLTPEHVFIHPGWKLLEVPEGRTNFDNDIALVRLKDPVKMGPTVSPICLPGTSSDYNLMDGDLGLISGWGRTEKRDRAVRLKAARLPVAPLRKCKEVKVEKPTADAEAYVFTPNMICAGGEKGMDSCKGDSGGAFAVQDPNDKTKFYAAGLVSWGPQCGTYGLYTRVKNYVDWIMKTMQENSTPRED
T3 sequence (P09871 16-437 partner limits assumed): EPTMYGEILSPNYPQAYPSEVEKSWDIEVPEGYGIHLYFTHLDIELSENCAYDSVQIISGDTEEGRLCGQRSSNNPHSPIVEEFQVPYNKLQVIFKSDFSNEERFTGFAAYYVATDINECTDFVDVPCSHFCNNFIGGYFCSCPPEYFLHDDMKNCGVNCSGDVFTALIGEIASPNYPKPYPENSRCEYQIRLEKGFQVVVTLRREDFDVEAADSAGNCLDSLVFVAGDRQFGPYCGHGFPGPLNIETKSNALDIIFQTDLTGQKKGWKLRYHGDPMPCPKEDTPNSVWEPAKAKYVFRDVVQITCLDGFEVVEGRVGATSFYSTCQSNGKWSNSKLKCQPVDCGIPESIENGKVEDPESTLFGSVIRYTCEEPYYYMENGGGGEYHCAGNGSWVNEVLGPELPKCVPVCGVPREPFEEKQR
Experimental: The anti-Cl esterase (Clr, Cls) activity was determined according to the method of Okamura et al. [K. Okamura, M. Muramatsu and S. Fujii, Biochem. Biophys. […] The figures in Table 2 have the following meanings:
Cls: Molar concentration of the test compound which inhibits 50% of the ability of Cls to hydrolyse ATEE (acetyltyrosin ethyl ester).

Plasmin = Plasmin (Homo sapiens, UniProt P00747); assay: Anti-plasmin activity (hydrolysis of TAME); format: biochemical; conditions: molar concentration inhibiting 50% of TAME hydrolysis; read-out: Plasmin ID50
Plasmin, sequence (P00747 581-810 limits assumed, species assumed): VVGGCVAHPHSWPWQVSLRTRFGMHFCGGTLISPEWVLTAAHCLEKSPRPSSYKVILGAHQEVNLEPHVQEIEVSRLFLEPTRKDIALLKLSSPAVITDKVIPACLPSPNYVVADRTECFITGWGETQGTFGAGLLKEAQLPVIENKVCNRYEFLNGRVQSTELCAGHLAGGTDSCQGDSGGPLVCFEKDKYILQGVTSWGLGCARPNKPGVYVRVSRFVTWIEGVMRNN
Plasmin, sequence (P00747 97-580 partner limits assumed, species assumed): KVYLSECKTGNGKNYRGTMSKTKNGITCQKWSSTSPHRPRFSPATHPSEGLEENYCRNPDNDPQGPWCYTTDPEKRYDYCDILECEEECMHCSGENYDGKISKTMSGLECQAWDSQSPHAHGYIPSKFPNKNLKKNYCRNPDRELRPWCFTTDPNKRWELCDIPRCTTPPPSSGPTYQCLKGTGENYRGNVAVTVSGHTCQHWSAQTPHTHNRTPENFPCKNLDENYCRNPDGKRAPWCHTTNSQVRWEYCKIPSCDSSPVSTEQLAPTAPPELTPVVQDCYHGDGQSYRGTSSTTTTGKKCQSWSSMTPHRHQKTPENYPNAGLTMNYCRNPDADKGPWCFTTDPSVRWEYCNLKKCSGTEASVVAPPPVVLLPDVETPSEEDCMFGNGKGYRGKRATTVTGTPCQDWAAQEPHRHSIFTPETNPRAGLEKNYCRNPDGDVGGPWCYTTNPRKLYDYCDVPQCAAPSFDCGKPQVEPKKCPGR
Experimental: as §2

pIC50 (Kallikrein)	pIC50 (Trypsin)	pIC50 (Plasmin)	inhibition at 10 µM (Thrombin)	SMILES	pIC50 (C1r)	Inhibition of complement mediated hemolysis (%) ([1]; 1 × 10^-4)	Inhibition of complement mediated hemolysis (%) ([1]; 1 × 10^-5)	Inhibition of complement mediated hemolysis (%) ([1]; 1 × 10^-6)	Inhibition of complement mediated hemolysis (%) ([1]; 1 × 10^-7)	pIC50 (Thrombin)	pIC50 (C1s)	inhibition at 10 µM (Trypsin)
				CC(=O)Oc1ccc(CCC(=O)Oc2ccc3cc(C(=N)N)ccc3c2)cc1 [Compound 50]		49%	16%	1%	11%			
4.00	4.70	4.70		CN(C)c1cccc(C(=O)Oc2ccc3cc(C(=N)N)ccc3c2)c1 [Compound 23, 6-amidino-2-naphthyl 3-dimethylaminobenzoate]						5.00		
6.00	7.00	6.22		COc1ccc(C=CC(=O)Oc2ccc3cc(C(=N)N)ccc3c2)cc1OC [Compound 59]						5.22		
4.30	6.52	4.70		CN(C)c1ccc(C(=O)Oc2ccc3cc(C(=N)N)ccc3c2)cc1 [Compound 24, 6-amidino-2-naphthyl 4-dimethylaminobenzoate]						4.22		
< 5.00		< 5.00		Cc1ccccc1C(=O)Oc1ccc2cc(C(=N)N)ccc2c1 [Compound 2, 6-amidino-2-naphthyl 2-methylbenzoate]						< 5.00		38%
5.05	6.52	5.70		CC(C)(C)c1ccc(C(=O)Oc2ccc3cc(C(=N)N)ccc3c2)cc1 [Compound 5]						5.52		
< 5.00	5.52	5.70	24%	N=C(N)c1ccc2cc(OC(=O)C=Cc3ccc([N+](=O)[O-])cc3)ccc2c1 [Compound 62, 6-amidino-2-naphthyl 4-nitrocinnamate]								
< 5.00	5.70	6.30	22%	Cc1ccc(C=CC(=O)Oc2ccc3cc(C(=N)N)ccc3c2)cc1 [Compound 58]								
				N=C(N)c1ccc2cc(OC(=O)Cc3ccc(Cl)cc3)ccc2c1 [Compound 44]	< 5.00	89%	21%	0%	18%		< 5.00	
				N=C(N)c1ccc2cc(OC(=O)COc3ccc(Cl)cc3Cl)ccc2c1 [Compound 70]	< 5.00	26%	1%	0%	2%		< 5.00	
				N=C(N)c1ccc2cc(OC(=O)CCCc3ccccc3)ccc2c1 [Compound 54, 6-amidino-2-naphthyl 4-phenylbutyrate]	< 5.00	12%	10%	10%	4%		< 5.00	
< 5.00	5.30	5.70	43%	Cc1ccc(CCC(=O)Oc2ccc3cc(C(=N)N)ccc3c2)cc1 [Compound 48]								

SMILES	pIC50 (Kallikrein)	pIC50 (Trypsin)	pIC50 (Plasmin)	inhibition at 10 µM (Thrombin)	pIC50 (C1r)	Inhibition of complement mediated hemolysis (%) ([1]; 1 × 10^-4)	Inhibition of complement mediated hemolysis (%) ([1]; 1 × 10^-5)	Inhibition of complement mediated hemolysis (%) ([1]; 1 × 10^-6)	Inhibition of complement mediated hemolysis (%) ([1]; 1 × 10^-7)	pIC50 (Thrombin)	pIC50 (C1s)	inhibition at 10 µM (Trypsin)
N=C(N)c1ccc2cc(OC(=O)c3ccccc3)ccc2c1 [Compound 1, 6-amidino-2-naphthyl benzoate]	4.52	5.52	5.70		6.40	100%	100%	91%	27%	5.30	7.00	
N=C(N)c1ccc2cc(OC(=O)c3ccc(CNC(=O)OCc4ccccc4)cc3)ccc2c1 [Compound 21, 6-amidino-2-naphthyl 4-benzyloxycarbonylaminomethylbenzoate]	5.00	6.22			6.15	0%	66%	14%	0%	< 5.00	6.30	
COC(=O)c1ccc(C(=O)Oc2ccc3cc(C(=N)N)ccc3c2)cc1 [Compound 14]		6.52	6.30		5.15	61%	15%	1%	3%	5.52	5.22	
Cc1ccc(C(=O)Oc2ccc3cc(C(=N)N)ccc3c2)cc1 [Compound 4]	5.10	6.00	6.30		6.40		85%	37%	21%	4.70	7.15	
N=C(N)Nc1ccc(CCC(=O)Oc2ccc3cc(C(=N)N)ccc3c2)cc1 [Compound 52]	< 5.00		< 5.00		< 5.00	48%	15%	6%	14%	< 5.00	< 5.00	33%
CC(=O)Nc1ccc(C(=O)Oc2ccc3cc(C(=N)N)ccc3c2)cc1 [Compound 25, 6-amidino-2-naphthyl 4-acetylaminobenzoate]	4.00				6.15	64%	26%	1%	0%	4.22	6.40	
N=C(N)c1ccc2cc(OC(=O)C=Cc3ccccc3)ccc2c1 [Compound 57, 6-amidino-2-naphthyl cinnamate]	4.30	5.30	5.52		4.52		80%	24%	23%	5.00	5.52	
